Assay results reported in patent US6710081B1, “Erection insufficiency remedies” (priority 1999, dated 2004).

Assays:
[1] = tested on: corpus cavernosum penis; experiment: Intracavernosal pressure increasing activity; type: in vivo, beagle; settings: for Intracavernosal pressure increase: anesthetized beagle, intracavernosal injection, maximum up to 4 minutes from administration
Excerpt: Under anesthesia with thiopental, cannulae were indwelled in left cephalic vein (for infusion) and left femoral artery (for measuring blood pressure and heart rate) of a beagle. The epidermis was dissected from the top of penis to scrotum with an electrocautery to expose the albuguinea on the surface of the cavernous body. A cannula with a needle for measuring the inner pressure and administering a chemical was inserted into the cavernous body and (11α,15α,13E)-9-oxo-11,15-dihydroxy-16-(3-methoxy-methylphenyl)-17,18,19,20-tetranor-5-thiaprost-13-enoic acid methyl ester (methyl ester of the compound of formula (I-1) above, hereinafter abbreviated as methyl ester form) was administered in four kinds of dosage, i.e., 0.2, 2.0, 20, and 200 ng. As controls, 20 ng of PGE1 and physiological saline were used.
Through the cannula inserted into the corpus cavernosum penis, the chemical was injected in amounts of 100 μl and was followed by 300 μl saline injection. A difference between the maximum intra pressures up to 4 minutes from the administration and the intra pressure at the time of administration was taken as the value of intracavernosal pressure increase.

[2] = tested on: rat; settings: in vivo, iv
Procedure: It has been confirmed that the compounds of the present invention of formula (I) have sufficiently low toxicity and are sufficiently safe for use as pharmaceutical preparations. For example, the maximal tolerated dose of methyl ester of the compound of formula (I-1) was 30 mg/kg weight or more for rat intravenous administration.

| Structure (SMILES) | Intracavernosal pressure increase ([1]; dose 0.2 ng/100 μl) | Intracavernosal pressure increase ([1]; dose 2.0 ng/100 μl) | Intracavernosal pressure increase ([1]; dose 20 ng/100 μl) | Intracavernosal pressure increase ([1]; dose 200 ng/100 μl) | Effect on intracavernosal pressure (in words) ([1]; beagle, 0.2 to 200 ng intracavernosal) | maximal tolerated dose [2] |
| --- | --- | --- | --- | --- | --- | --- |
| COCc1cccc(C[C@H](O)/C=C/[C@H]2[C@H](O)CC(=O)[C@@H]2CCSCCCC(=O)OC)c1 [Methyl ester form, (11α,15α,13E)-9-oxo-11,15-dihydroxy-16-(3-methoxy-methylphenyl)-17,18,19,20-tetranor-5-thiaprost-13-enoic acid methyl ester] | 4.3 ± 1.9 mmHg | 12.7 ± 8.7 mmHg | 28.3 ± 12.3 mmHg | 40.7 ± 16.6 mmHg | increased the intracavernosal pressure dose-dependently | ≥ 30 mg/kg weight |
| CCCCC[C@H](O)/C=C/[C@H]1[C@H](O)CC(=O)[C@@H]1CCCCCCC(=O)O [PGE1, prostaglandin E1, reference compound] | – | – | 29.0 ± 12.5 mmHg | – | – | – |
